Experiment [1] has as its system CD8-MerTK in Ba/F3-CDM cells. As to the kind of experiment: In cell MER kinase assay, Ba/F3-CDM cell proliferation without IL-3 (Celltiter-Glo). The note with it: 48 hours compound treatment, read-out: Cell growth inhibition (GI50). The experiment is classed as cell-based, murine. The method, then: To establish an in cell kinase assay for MerTK kinase, the IL-3 dependent Ba/F3 cells of murine lymphoid origin was transfected with CD8-MerTK. […] For a routine cellular assay, Ba/F3-CDM cells were seeded at 2,000 cells per well in 384-well cell culture plate containing DMEM/10% FBS culture media and incubated for 24 hours before addition of compounds pre-diluted in culture media. Following compound treatment, cells were further incubated for 48 hours and the proliferation was measured. To discriminate a Ba/F3 growth inhibition by a specific inhibition of MerTK kinase following compound treatment vs growth inhibition due to a non-specific unintended cytotoxicity of compounds, we routinely carried out control sets of Ba/F3 cells in parallel that grown in IL3-supplemented growth media. In the presence of IL-3, the proliferation of Ba/F3 is no longer dependent on the MerTK activity. Cell growth and proliferation was measured with Celltiter-Glo™ system (Promega, USA) according to the manufacturer's instruction. The half-maximal growth inhibitory concentration (GI50) value was calculated with Prism6.0 software (GraphPad, USA).
(In general: In ATP-based viability assays light output follows the ATP content of the culture.)

Experiment [2] deals with human c-MER catalytic domain (Homo sapiens (Human), UniProt Q12866). In words: LanthaScreen TR-FRET kinase assay, c-MER. The settings on record: read-out: Mer TK inhibition (IC50); Biochemical IC50, TR-FRET, 10 uM ATP. On the technique in general: TR-FRET usually uses a lanthanide donor and a delayed reading to cut background.
Sequence of human c-MER catalytic domain (Q12866 587-858): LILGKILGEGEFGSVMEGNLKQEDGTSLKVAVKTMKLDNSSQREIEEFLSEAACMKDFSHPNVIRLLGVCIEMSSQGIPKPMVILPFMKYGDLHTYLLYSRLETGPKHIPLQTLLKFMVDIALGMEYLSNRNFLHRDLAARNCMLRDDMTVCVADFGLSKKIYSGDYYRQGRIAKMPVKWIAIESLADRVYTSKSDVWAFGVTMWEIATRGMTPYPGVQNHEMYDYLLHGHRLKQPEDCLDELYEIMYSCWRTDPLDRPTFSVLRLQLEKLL

For the compound `C[C@H](c1ccc(-c2ccc(CO[C@H]3CCC[C@@H]3NC(=O)c3cc(-c4cnn(C)c4)cnc3N)cc2)cc1)N1CCNCC1` [Example 213, 2-amino-5-(1-methyl-1H-pyrazol-4-yl)-N-((1S,2S)-2-((4′-((R)-1-(piperazin-1-yl)ethyl)-[1,1′-biphenyl]-4-yl)methoxy)cyclopentyl)nicotinamide], the GI50 (as a rule, the concentration that inhibits growth by half) in experiment [1] fell in the range of 100 to 500 nM. For the same compound, in experiment [2], the IC50 (commonly the midpoint of a concentration-inhibition curve) was under 10 nM.
For `CCN1CCN(Cc2ccc(-c3ccc(CO[C@H]4CCC[C@@H]4NC(=O)c4cc(-c5cnn(C)c5)cnc4N)cc3)cc2)CC1` [Example 183, 2-amino-N-((1S,2S)-2-((4′-((4-ethylpiperazin-1-yl)methyl)-[1,1′-biphenyl]-4-yl)methoxy)cyclopentyl)-5-(1-methyl-1H-pyrazol-4-yl)nicotinamide], the GI50 in experiment [1] is under 100 nM. Besides, in experiment [2], the IC50 is under 10 nM.
With `CCc1cc(CO[C@H]2CCC[C@@H]2NC(=O)c2cc(-c3cnn(C)c3)cnc2N)ccc1C` [Example 21, 2-amino-N-((1S,2S)-2-((3-ethyl-4-methylbenzyl)oxy)cyclopentyl)-5-(1-methyl-1H-pyrazol-4-yl)nicotinamide], the GI50 in experiment [1] is over 1000 nM. Also, the IC50 in experiment [2] was under 10 nM.
On to `Cc1cscc1-c1cnc(N)c(C(=O)N[C@H]2CCC[C@@H]2OCc2ccc(-c3ccc(CN4CCN(C)CC4)cc3)cc2)c1` [Example 385, 2-amino-N-((1S,2S)-2-((4′-((4-methylpiperazin-1-yl)methyl)-[1,1′-biphenyl]-4-yl)methoxy)cyclopentyl)-5-(4-methylthiophen-3-yl)nicotinamide], for which, in experiment [1], the GI50 is 100 to 500 nM. Besides, in experiment [2], the IC50 is under 10 nM.
Turning to `CN1C[C@H](NC(=O)c2cc(-c3cnn(C)c3)cnc2N)[C@@H](OCc2ccc(-c3ccc(CN4CCN(CCO)CC4)c(C(F)(F)F)c3)cc2)C1` [Example 445, 2-amino-N-((3S,4S)-4-((4′-((4-(2-hydroxyethyl)piperazin-1-yl)-methyl)-3′-(trifluoromethyl)-[1,1′-biphenyl]-4-yl)methoxy)-1-methylpyrrolidin-3-yl)-5-(1-methyl-1H-pyrazol-4-yl)nicotinamide], the GI50 in experiment [1] is under 100 nM. The IC50 in experiment [2] is under 10 nM.
In the case of `CN1CCN(Cc2ccc(-c3ccc(CO[C@H]4CCC[C@@H]4NC(=O)c4cc(-c5cnn(C)c5)cnc4N)cc3)c(Cl)c2)CC1` [Example 202, 2-amino-N-((1S,2S)-2-((2′-chloro-4′-((4-methylpiperazin-1-yl)-methyl)-[1,1′-biphenyl]-4-yl)methoxy)cyclopentyl)-5-(1-methyl-1H-pyrazol-4-yl)-nicotinamide], the GI50 in experiment [1] was 100 to 500 nM. In addition, the IC50 in experiment [2] is under 10 nM.
For `CN1CCN(Cc2ccc(-c3ccc(CO[C@H]4COC[C@@H]4NC(=O)c4cc(-c5cnn(C)c5)cnc4N)cc3)cc2C(F)(F)F)CC1` [Example 449, 2-amino-5-(1-methyl-1H-pyrazol-4-yl)-N-((3S,4R)-4-((4′-((4-methylpiperazin-1-yl)methyl)-3′-(trifluoromethyl)-[1,1′-biphenyl]-4-yl)methoxy)-tetrahydrofuran-3-yl)nicotinamide] the same measures were under 100 nM and under 10 nM.
In the case of `CN1CCN(Cc2ccc(-c3ccc(CO[C@H]4CCC[C@@H]4NC(=O)c4cc(-c5cnn(C)c5)cnc4N)cc3)cn2)CC1` [Example 203, 2-amino-5-(1-methyl-1H-pyrazol-4-yl)-N-((1S,2S)-2-((4-(6-((4-methylpiperazin-1-yl)methyl)pyridin-3-yl)benzyl)oxy)cyclopentyl)nicotinamide], the GI50 in experiment [1] is 100 to 500 nM. The IC50 in experiment [2] was under 10 nM.
With `CN1CCN(Cc2ccc(-c3ccc(CO[C@H]4CCC[C@@H]4NC(=O)c4cc(-c5cnn(C6CCOCC6)c5)cnc4N)cc3)cc2)CC1` [Example 380], the GI50 in experiment [1] is under 100 nM. Moreover, the IC50 in experiment [2] was under 10 nM.
With `CN(C)c1ccc(-c2ccc(CO[C@H]3CCC[C@@H]3NC(=O)c3cc(-c4cnn(C)c4)cnc3N)cc2)cc1` [Example 137, 2-amino-N-((1S,2S)-2-((4′-(dimethylamino)-[1,1′-biphenyl]-4-yl)methoxy)cyclopentyl)-5-(1-methyl-1H-pyrazol-4-yl)nicotinamide], in experiment [1], the GI50 is under 100 nM. For the same compound, the IC50 in experiment [2] was under 10 nM.
Take `C[C@@H](c1ccc(-c2ccc(CO[C@H]3CCC[C@@H]3NC(=O)c3cc(-c4cnn(C)c4)cnc3N)cc2)cc1)N1CCN(C)CC1` [Example 215, 2-amino-5-(1-methyl-1H-pyrazol-4-yl)-N-((1S,2S)-2-((4′-((S)-1-(4-methylpiperazin-1-yl)ethyl)-[1,1′-biphenyl]-4-yl)methoxy)cyclopentyl)nicotinamide]: the GI50 in experiment [1] was under 100 nM. Besides, the IC50 in experiment [2] was under 10 nM.
For `CC(c1ccc(-c2ccc(CO[C@H]3CCC[C@@H]3NC(=O)c3cc(-c4cncc(F)c4)cnc3N)cc2)cc1)N1CCN(CCO)CC1` (stereo partly drawn) [Example 236, 6-amino-5′-fluoro-N-((1S,2S)-2-((4′-(1-(4-(2-hydroxyethyl)-piperazin-1-yl)ethyl)-[1,1′-biphenyl]-4-yl)methoxy)cyclopentyl)-[3,3′-bipyridine]-5-carboxamide] the same measures were under 100 nM and under 10 nM.
Taken in the same sequence, the figures for `CCc1cc(CO[C@H]2CNC[C@@H]2NC(=O)c2cc(-c3ccncc3)cnc2N)ccc1C` [Example 395, 6-amino-N-((3S,4S)-4-((3-ethyl-4-methylbenzyl)oxy)pyrrolidin-3-yl)-[3,4′-bipyridine]-5-carboxamide] were 500 to 1000 nM and under 10 nM.
`CN1CCN(Cc2ccc(-c3ccc(CO[C@H]4CCC[C@@H]4NC(=O)c4cc(-c5ccccc5)cnc4N)cc3)cc2)CC1` [Example 371, 2-amino-N-((1S,2S)-2-((4′-((4-methylpiperazin-1-yl)methyl)-[1,1′-biphenyl]-4-yl)methoxy)cyclopentyl)-5-phenylnicotinamide]: the GI50 in experiment [1] is under 100 nM. The IC50 in experiment [2] was under 10 nM.
Take `Cc1ccc(CO[C@H]2CNC[C@@H]2NC(=O)c2cc(-c3cnn(C)c3)cnc2N)cc1` [Example 415, 2-amino-5-(1-methyl-1H-pyrazol-4-yl)-N-((3S,4S)-4-((4-methylbenzyl)oxy)pyrrolidin-3-yl)nicotinamide]: the GI50 in experiment [1] is over 1000 nM. The IC50 in experiment [2] was under 10 nM.
In the case of `CN(C)C1CCN(Cc2ccc(-c3ccc(CO[C@H]4CCC[C@@H]4NC(=O)c4cc(-c5cnn(C)c5)cnc4N)cc3)cc2)C1` (stereo partly drawn) [Example 193, 2-amino-N-((1S,2S)-2-((4′-((3-(dimethylamino)pyrrolidin-1-yl)methyl)-[1,1′-biphenyl]-4-yl)methoxy)cyclopentyl)-5-(1-methyl-1H-pyrazol-4-yl)nicotinamide], the GI50 in experiment [1] is under 100 nM. The IC50 in experiment [2] was under 10 nM.
As to `CN1CCN(Cc2ccc(-c3ccc(CO[C@H]4CCC[C@@H]4NC(=O)c4cc(-c5ccc(O)cc5)cnc4N)cc3)cc2)CC1` [Example 372], the concentration for 50% growth inhibition (GI50) in experiment [1] is under 100 nM. Besides, in experiment [2], the IC50 was under 10 nM.
For `Cn1cc(-c2cnc(N)c(C(=O)N[C@H]3CNC[C@@H]3OCc3ccc(-c4ccc(CN5CCN(CCO)CC5)c(C(F)(F)F)c4)cc3)c2)cn1` [Example 444, 2-amino-N-((3S,4S)-4-((4′-((4-(2-hydroxyethyl)piperazin-1-yl)-methyl)-3′-(trifluoromethyl)-[1,1′-biphenyl]-4-yl)methoxy)pyrrolidin-3-yl)-5-(1-methyl-1H-pyrazol-4-yl)nicotinamide], in experiment [1], the GI50 is over 1000 nM. Also, the IC50 in experiment [2] is under 10 nM.
For `Cn1cc(-c2cnc(N)c(C(=O)N[C@H]3CCC[C@@H]3OCc3ccc(-c4ccc(CN5CCNCC5)cc4)cc3)c2)cn1` [Example 177, 2-amino-5-(1-methyl-1H-pyrazol-4-yl)-N-((1S,2S)-2-((4′-(piperazin-1-ylmethyl)-[1,1′-biphenyl]-4-yl)methoxy)cyclopentyl)nicotinamide], the GI50 in experiment [1] fell in the range of 100 to 500 nM. The concentration for half-maximal inhibition (IC50) in experiment [2] is under 10 nM.
As to `CN1C[C@H](NC(=O)c2cc(-c3cnn(C)c3)cnc2N)[C@@H](OCc2ccc(-c3ccc(C(C)(C)N4CCN(CCO)CC4)cc3)cc2)C1` [Example 441], the GI50 in experiment [1] is 100 to 500 nM. Besides, the IC50 in experiment [2] was under 10 nM.
Take `CC(c1ccc(-c2ccc(CO[C@H]3CCC[C@@H]3NC(=O)c3cc(-c4ccc(F)nc4)cnc3N)cc2)cc1)N1CCN(CCO)CC1` (stereo partly drawn) [Example 237, 6-amino-6′-fluoro-N-((1S,2S)-2-((4′-(1-(4-(2-hydroxyethyl)-piperazin-1-yl)ethyl)-[1,1′-biphenyl]-4-yl)methoxy)cyclopentyl)-[3,3′-bipyridine]-5-carboxamide]: in experiment [1], the GI50 was under 100 nM. In addition, the IC50 in experiment [2] was under 10 nM.
For `CCc1cc(CO[C@H]2CNC[C@@H]2NC(=O)c2cc(-c3cccnc3)cnc2N)ccc1C` [Example 396, 6-amino-N-((3S,4S)-4-((3-ethyl-4-methylbenzyl)oxy)pyrrolidin-3-yl)-[3,3′-bipyridine]-5-carboxamide], the GI50 in experiment [1] is over 1000 nM. For the same compound, the IC50 in experiment [2] is under 10 nM.
Regarding `CC(c1ccc(-c2ccc(CO[C@H]3CCC[C@@H]3NC(=O)c3cccnc3N)cc2)cc1)N1CCN(C)CC1` (stereo partly drawn) [Example 235, 2-amino-N-((1S,2S)-2-((4′-(1-(4-methylpiperazin-1-yl)ethyl)-[1,1′-biphenyl]-4-yl)methoxy)cyclopentyl)nicotinamide], in experiment [1], the 50% growth inhibitory concentration (GI50) was in the range of 500 to 1000 nM. Besides, the IC50 in experiment [2] was under 10 nM.

The record behind these values is US10125118B2, “Heteroaryl compounds and their use as therapeutic drugs” (Dong-A Socio Holdings Co., Ltd., priority 2015, dated 2018).
